Assay results as given in ChEMBL document CHEMBL3352739, “Comparative in vivo evaluation of polyalkoxy substituted 4H-chromenes and oxa-podophyllotoxins as microtubule destabilizing agents in the phenotypic sea urchin embryo assay” (2014).

Tests used:
CAKI-1 = test: Growth inhibition of human CAKI-1 cells after 48 hrs by sulforhodamine B assay; assay type: functional; conditions: CAKI-1, 48 h
SN12C = test: Growth inhibition of human SN12C cells after 48 hrs by sulforhodamine B assay; assay type: functional
T47D = test: Growth inhibition of human T47D cells after 48 hrs by sulforhodamine B assay; assay type: functional
Paracentrotus lividus [1] = test: Antimitotic microtubule destabilizing activity in Paracentrotus lividus L embryos assessed as induction of embryo spinning
[2] = Growth inhibition of human SF295 cells after 48 hrs by sulforhodamine B assay; assay type: functional; conditions: SF-295, 48 h
[3] = Growth inhibition of human UACC62 cells after 48 hrs by sulforhodamine B assay; assay type: functional; conditions: UACC-62, 48 h
786-0 = test: Growth inhibition of human 786-0 cells after 48 hrs by sulforhodamine B assay; assay type: functional; conditions: 786-0, 48 h
[4] = Growth inhibition of human LOXIMVI cells after 48 hrs by sulforhodamine B assay; assay type: functional; conditions: LOX IMVI
[5] = Growth inhibition of human HCT116 cells after 48 hrs by sulforhodamine B assay; assay type: functional; conditions: HCT-116, 48 h
NCI-H460 = test: Growth inhibition of human NCI-H460 cells after 48 hrs by sulforhodamine B assay; assay type: functional; conditions: NCI-H460, 48 h
SNB-19 = test: Growth inhibition of human SNB19 cells after 48 hrs by sulforhodamine B assay; assay type: functional; conditions: SNB-19, 48 h
HOP-62 = test: Growth inhibition of human HOP62 cells after 48 hrs by sulforhodamine B assay; assay type: functional; conditions: HOP-62, 48 h
[6] = Growth inhibition of human HOP92 cells after 48 hrs by sulforhodamine B assay; assay type: functional; conditions: HOP-92, 48 h
[7] = Growth inhibition of human Hs 578T cells after 48 hrs by sulforhodamine B assay; assay type: functional
K562 = test: Growth inhibition of human K562 cells after 48 hrs by sulforhodamine B assay; assay type: functional; conditions: K562, 48 h
SK-OV-3 = test: Growth inhibition of human SKOV3 cells after 48 hrs by sulforhodamine B assay; assay type: functional; conditions: SK-OV-3, 48 h
A549 = test: Growth inhibition of human A549/ATCC cells after 48 hrs by sulforhodamine B assay; assay type: functional; conditions: A549, 48 h
HT-29 = test: Growth inhibition of human HT-29 cells after 48 hrs by sulforhodamine B assay; assay type: functional; conditions: HT-29, 48 h
Paracentrotus lividus [8] = test: Antimitotic microtubule destabilizing activity in Paracentrotus lividus L embryos assessed as induction of cleavage arrest
SNB-75 = test: Growth inhibition of human SNB75 cells after 48 hrs by sulforhodamine B assay; assay type: functional; conditions: SNB-75, 48 h
IGROV-1 = test: Growth inhibition of human IGROV1 cells after 48 hrs by sulforhodamine B assay; assay type: functional; conditions: IGROV-1, 48 h
[9] = Growth inhibition of human OVCAR4 cells after 48 hrs by sulforhodamine B assay; assay type: functional; conditions: OVCAR-4, 48 h
[10] = Growth inhibition of human RPMI8226 cells after 48 hrs by sulforhodamine B assay; assay type: functional; conditions: RPMI-8226, 48 h
NCI-H522 = test: Growth inhibition of human NCI-H522 cells after 48 hrs by sulforhodamine B assay; assay type: functional; conditions: NCI-H522, 48 h
[11] = Growth inhibition of human HCC2998 cells after 48 hrs by sulforhodamine B assay; assay type: functional; conditions: HCC 2998, 48 h
NCI-H322M = test: Growth inhibition of human NCI-H322M cells after 48 hrs by sulforhodamine B assay; assay type: functional
ACHN = test: Growth inhibition of human ACHN cells after 48 hrs by sulforhodamine B assay; assay type: functional
HL-60(TB) = test: Growth inhibition of human HL-60(TB) cells after 48 hrs by sulforhodamine B assay; assay type: functional; conditions: HL-60, 48 h
[12] = Growth inhibition of human MOLT4 cells after 48 hrs by sulforhodamine B assay; assay type: functional; conditions: MOLT-4, 48 h
A498 = test: Growth inhibition of human A498 cells after 48 hrs by sulforhodamine B assay; assay type: functional; conditions: A498, 48 h
MDA-MB-231 = test: Growth inhibition of human MDA-MB-231 cells after 48 hrs by sulforhodamine B assay; assay type: functional; conditions: MDA-MB-231, 48 h
CCRF-CEM = test: Growth inhibition of human CCRF-CEM cells after 48 hrs by sulforhodamine B assay; assay type: functional
[13] = Growth inhibition of human SF539 cells after 48 hrs by sulforhodamine B assay; assay type: functional; conditions: SF-539, 48 h
[14] = Growth inhibition of human EKVX cells after 48 hrs by sulforhodamine B assay; assay type: functional
DU-145 = test: Growth inhibition of human DU145 cells after 48 hrs by sulforhodamine B assay; assay type: functional; conditions: DU-145, 48 h
M14 = test: Growth inhibition of human M14 cells after 48 hrs by sulforhodamine B assay; assay type: functional; conditions: M14, 48 h
[15] = Growth inhibition of human BT549 cells after 48 hrs by sulforhodamine B assay; assay type: functional; conditions: BT-549, 48 h
[16] = Growth inhibition of human RXF393 cells after 48 hrs by sulforhodamine B assay; assay type: functional; conditions: RXF 393, 48 h
SR = test: Growth inhibition of human SR cells after 48 hrs by sulforhodamine B assay; assay type: functional
[17] = Growth inhibition of human OVCAR3 cells after 48 hrs by sulforhodamine B assay; assay type: functional; conditions: OVCAR-3, 48 h
[18] = Growth inhibition of human HCT15 cells after 48 hrs by sulforhodamine B assay; assay type: functional; conditions: HCT-15, 48 h
[19] = Growth inhibition of human UACC257 cells after 48 hrs by sulforhodamine B assay; assay type: functional; conditions: UACC-257, 48 h
[20] = Growth inhibition of human H1299 cells after 48 hrs by sulforhodamine B assay; assay type: functional; conditions: NCI-H1299, 48 h
NCI-H226 = test: Growth inhibition of human NCI-H226 cells after 48 hrs by sulforhodamine B assay; assay type: functional; conditions: NCI-H226, 48 h
SF-268 = test: Growth inhibition of human SF268 cells after 48 hrs by sulforhodamine B assay; assay type: functional; conditions: SF-268, 48 h
NCI-H23 = test: Growth inhibition of human NCI-H23 cells after 48 hrs by sulforhodamine B assay; assay type: functional; conditions: NCI-H23, 48 h
[21] = Growth inhibition of human PC3 cells after 48 hrs by sulforhodamine B assay; assay type: functional; conditions: PC-3, 48 h
KM12 = test: Growth inhibition of human KM12 cells after 48 hrs by sulforhodamine B assay; assay type: functional; conditions: KM12, 48 h
SW-620 = test: Growth inhibition of human SW620 cells after 48 hrs by sulforhodamine B assay; assay type: functional; conditions: SW-620, 48 h
[22] = Growth inhibition of human OVCAR8 cells after 48 hrs by sulforhodamine B assay; assay type: functional; conditions: OVCAR-8, 48 h
MDA-MB-435 = test: Growth inhibition of human MDA-MB-435 cells after 48 hrs by sulforhodamine B assay; assay type: functional; conditions: MDA-MB-435, 48 h
[23] = Cytotoxicity against human NCI60 cells; assay type: functional
SK-MEL-2 = test: Growth inhibition of human SK-MEL-2 cells after 48 hrs by sulforhodamine B assay; assay type: functional; conditions: SK-MEL-2, 48 h
U-251 = test: Growth inhibition of human U251 cells after 48 hrs by sulforhodamine B assay; assay type: functional; conditions: U-251, 48 h
SK-MEL-5 = test: Growth inhibition of human SK-MEL-5 cells after 48 hrs by sulforhodamine B assay; assay type: functional; conditions: SK-MEL-5, 48 h
[24] = Growth inhibition of human UO31 cells after 48 hrs by sulforhodamine B assay; assay type: functional; conditions: UO-31, 48 h
Paracentrotus lividus [25] = test: Antimitotic microtubule destabilizing activity in Paracentrotus lividus L embryos assessed as induction of cleavage alteration
MCF7 = test: Growth inhibition of human MCF7 cells after 48 hrs by sulforhodamine B assay; assay type: functional; conditions: MCF7, 48 h
MDA-MB-468 = test: Growth inhibition of human MDA-MB-468 cells after 48 hrs by sulforhodamine B assay; assay type: functional; conditions: MDA-MB-468, 48 h
[26] = Growth inhibition of human NCI-ADR-RES cells after 48 hrs by sulforhodamine B assay; assay type: functional
[27] = Growth inhibition of human COLO205 cells after 48 hrs by sulforhodamine B assay; assay type: functional; conditions: COLO 205, 48 h

## COc1ccc2c(c1)OC(N)=C(C#N)C2c1cc(OC)c(OC)c(OC)c1 (racemic)
CAKI-1
  GI50: 146 nM
SN12C
  GI50: 58.7 nM
T47D
  GI50: > 100000 nM
Paracentrotus lividus [1]
  EC: 0.5 µM
[2]
  GI50: 25.2 nM
[3]
  GI50: 37.9 nM
786-0
  GI50: 49.4 nM
[4]
  GI50: 34 nM
[5]
  GI50: 30.6 nM
NCI-H460
  GI50: 34.4 nM
SNB-19
  GI50: 86.4 nM
HOP-62
  GI50: 62.6 nM
[6]
  GI50: 20.7 nM
[7]
  GI50: 49 nM
K562
  GI50: 34.3 nM
SK-OV-3
  GI50: 33 nM
A549
  GI50: 37.6 nM
HT-29
  GI50: 27.8 nM
Paracentrotus lividus [8]
  EC: 0.05 µM
SNB-75
  GI50: 42.9 nM
IGROV-1
  GI50: 42.5 nM
[9]
  GI50: 80.8 nM
[10]
  GI50: 37.9 nM
NCI-H522
  GI50: 12.3 nM
[11]
  GI50: 28.2 nM
NCI-H322M
  GI50: 48 nM
ACHN
  GI50: 76 nM
HL-60(TB)
  GI50: 25.6 nM
[12]
  GI50: 37 nM
A498
  GI50: 20.9 nM
MDA-MB-231
  GI50: 38.1 nM
CCRF-CEM
  GI50: 33.7 nM
[13]
  GI50: 33.5 nM
[14]
  GI50: 251 nM
DU-145
  GI50: 25.2 nM
M14
  GI50: 25.5 nM
[15]
  GI50: 25 nM
[16]
  GI50: 25.9 nM
SR
  GI50: 27.1 nM
[17]
  GI50: 25.8 nM
[18]
  GI50: 32.8 nM
[19]
  GI50: 37.1 nM
[20]
  GI50: 45 nM
NCI-H226
  GI50: 83.9 nM
SF-268
  GI50: 73.2 nM
NCI-H23
  GI50: 36.5 nM
[21]
  GI50: 42.8 nM
KM12
  GI50: 25.1 nM
SW-620
  GI50: 38.8 nM
[22]
  GI50: 34.5 nM
MDA-MB-435
  GI50: 15 nM
[23]
  GI50: 45 nM
SK-MEL-2
  GI50: 27.6 nM
U-251
  GI50: 26.2 nM
SK-MEL-5
  GI50: 24 nM
[24]
  GI50: 1570 nM
Paracentrotus lividus [25]
  EC: 0.01 µM
MCF7
  GI50: 34.2 nM
MDA-MB-468
  GI50: 21.6 nM
[26]
  GI50: 19.9 nM
[27]
  GI50: 28.1 nM
